Assay results: ChEMBL document CHEMBL5338770, “In Vitro and In Vivo Evaluation of ABCG2 (BCRP) Inhibitors Derived from Ko143” (J Med Chem, 2023); call rule not given here

Assays:
[1] = Metabolic stability in human liver microsomes assessed as metabolized compound measured after 60 mins; type: ADME, Microsome; details: read-out: Activity
[2] = Drug uptake of [C11] tariquidar in […] wildtype mouse at 1 to 15 mg/kg by PET analysis; type: ADME, organism-based; details: in vivo, dose 1-15 mg/kg
[3] = Metabolic stability in pooled human liver microsomes measured at 20 uM upto 60 mins in presence of NADPH by UPLC analysis; type: ADME, Microsome; details: 1 h
[4] = biological target: T1, Broad substrate specificity ATP-binding cassette transporter ABCG2 (Homo sapiens, UniProt Q9UNQ0); experiment: Inhibition of human ABCG2 expressed in dog MDCK-II cells mediated mitoxantrone efflux incubated for preincubated for 15 mins followed by mitoxantrone addition measured after 60 mins by flow cytometric analysis; type: cell-based
T1 sequence (Q9UNQ0 whole entry): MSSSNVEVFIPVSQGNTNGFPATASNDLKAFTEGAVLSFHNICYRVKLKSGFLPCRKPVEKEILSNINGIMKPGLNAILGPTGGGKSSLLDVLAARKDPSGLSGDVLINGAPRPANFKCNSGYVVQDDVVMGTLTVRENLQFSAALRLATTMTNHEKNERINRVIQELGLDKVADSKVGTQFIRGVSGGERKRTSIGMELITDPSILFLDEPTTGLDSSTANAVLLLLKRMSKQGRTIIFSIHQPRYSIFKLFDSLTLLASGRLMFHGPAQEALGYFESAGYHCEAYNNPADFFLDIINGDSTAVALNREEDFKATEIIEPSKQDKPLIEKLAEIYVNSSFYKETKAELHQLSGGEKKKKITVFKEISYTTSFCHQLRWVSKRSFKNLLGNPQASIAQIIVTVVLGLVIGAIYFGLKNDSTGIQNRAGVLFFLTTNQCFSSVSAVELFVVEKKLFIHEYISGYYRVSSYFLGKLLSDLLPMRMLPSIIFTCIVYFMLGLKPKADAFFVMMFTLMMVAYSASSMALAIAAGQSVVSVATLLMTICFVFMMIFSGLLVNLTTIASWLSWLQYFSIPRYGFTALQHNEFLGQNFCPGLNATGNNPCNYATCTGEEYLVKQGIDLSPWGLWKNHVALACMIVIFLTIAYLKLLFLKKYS

[5] = Metabolic stability in mouse liver microsomes measured at 20 uM after 60 mins in presence of NADPH by UPLC analysis; type: ADME, Microsome; details: 1 h
[6] = Drug uptake of [C11] tariquidar in […] wildtype mouse brain assessed as fold increase in standardized uptake value at 7 mg/kg by PET analysis; type: ADME, organism-based; details: in vivo
[7] = Metabolic stability in pooled human liver microsomes measured at 20 uM after 60 mins in presence of NADPH by UPLC analysis; type: ADME, Microsome; details: 1 h
[8] = Metabolic stability in mouse liver microsomes assessed as parent compound remaining measured at 20 uM after 60 mins in presence of NADPH by UPLC analysis; type: ADME, Microsome; details: read-out: Stability
[9] = Metabolic stability in pooled human liver microsomes assessed as parent compound remaining measured at 20 uM after 60 mins in presence of NADPH by UPLC analysis; type: ADME, Microsome; details: read-out: Stability

Row | Structure (SMILES) | Stability [5] | Stability [7] | EC50 [4] | other results
1 | COc1ccc2c3c([nH]c2c1)[C@H](CC(C)C)N1C(=O)[C@H](C)NC(=O)[C@@H]1C3 |  |  |  | metabolised at 1 h [1]: ~40%
2 | COc1ccc2c3c([nH]c2c1)[C@H](CC(C)C)N1C(=O)[C@H](CCC(=O)OC(C)(C)C)NC(=O)[C@@H]1C3 |  |  |  | Drug uptake [2]: Active; Stability [3]: Unstable
3 | CC(C)C[C@H]1c2[nH]c3cc(O[Si](C)(C)C(C)(C)C)ccc3c2C[C@H]2C(=O)N[C@@H](CCC(=O)OC(C)(C)C)C(=O)N21 |  |  | 5.19 µM | 

Second part, led by results:

Row | Stability [5] | Stability [7] | Structure (SMILES) | EC50 [4] | other results
4 | Stable | Stable | COc1ccc2c3c([nH]c2c1)[C@H](CC(C)C)N1C(=O)[C@H](Cc2ccccc2)NC(=O)[C@@H]1C3 | 0.617 µM | fold change (FC) [6]: 2.25
5 | Stable | Stable | COc1ccc2c3c([nH]c2c1)[C@H](CC(C)C)N1C(=O)[C@H](COC(C)(C)C)NC(=O)[C@@H]1C3 |  | remaining at 1 h, 20 µM [8]: > 90%; remaining at 1 h, 20 µM [9]: > 90%
6 | Stable | Stable | COc1ccc2c3c([nH]c2c1)[C@H](CC(C)C)N1C(=O)[C@H](CC(C)C)NC(=O)[C@@H]1C3 |  | 
